The values that follow come from the NIST ThermoML archive (doi:10.1016/j.jct.2015.03.001).

± gives the expanded uncertainty stated by the source.

A short description of data set [1]: relative permittivity at various frequencies (dimensionless). The settings on record: 99 kPa, Liquid, Frequency=2 MHz, Parallel plate capacitor.
Data set [2] is described as follows: refractive index (Na D-line) (dimensionless); xn = mol fraction of the nth substance listed. To be noted: 99 kPa, Liquid, Abbe refractometer, x1 = 1.
Data set [3] in a line: relative permittivity at various frequencies (dimensionless); xn = mol fraction of the nth substance listed. The settings on record: 99 kPa, Liquid, Frequency=2 MHz, Parallel plate capacitor, x1 = 1.
The nature of data set [4]: refractive index (Na D-line) (dimensionless). To be noted: 298.15 K; 101.33 kPa; Liquid; Abbe refractometer.

`CC(C)CCl` [1-chloro-2-methylpropane]: the relative permittivity is reported as 7.472 ± 0.075 in data set [1] (283.15 K), 7.074 ± 0.071 in data set [1] (298.15 K) and 6.657 ± 0.067 in data set [1] (313.15 K).
Take `CCCCCl` [1-chlorobutane]: the relative permittivity in data set [1] (283.15 K) stood at 7.552 ± 0.076; in data set [1] (298.15 K), 7.157 ± 0.072; in data set [1] (313.15 K) it was 6.757 ± 0.068.
As for `CC(C)(C)Cl` [2-chloro-2-methylpropane], the results for the relative permittivity in data set [1] (283.15 K), in data set [1] (298.15 K) and in data set [1] (313.15 K) were 10.429 ± 0.1, 9.67 ± 0.097 and 8.952 ± 0.09, respectively.
Regarding `CCC(C)Cl` (configuration not stated) [2-chlorobutane], the relative permittivity in data set [1] (283.15 K) came out at 9.323 ± 0.093; in data set [1] (298.15 K), 8.652 ± 0.087; in data set [1] (313.15 K) it was 8.07 ± 0.081.
In the same order, the values of `CCCCCCC` [heptane] are 1.943 ± 0.019, 1.923 ± 0.019 and 1.902 ± 0.019.
As for `CCCCCCC` [heptane] + CC(C)(C)Cl, the results for the refractive index in data set [2] (283.15 K), in data set [2] (298.15 K) and in data set [2] (313.15 K) were 1.3929 ± 0.00031, 1.3852 ± 0.00031 and 1.37735 ± 0.00031, respectively. In addition, the values for the relative permittivity in data set [3] (283.15 K), in data set [3] (298.15 K) and in data set [3] (313.15 K) were 1.943 ± 0.019, 1.923 ± 0.019 and 1.902 ± 0.019, respectively.
Consider `CCCCCCC` [heptane] + CC(C)CCl, for which the figures for the refractive index in data set [2] (283.15 K), in data set [2] (298.15 K) and in data set [2] (313.15 K) were 1.3929 ± 0.00031, 1.3852 ± 0.00031 and 1.37735 ± 0.00031, respectively. In addition, the relative permittivity in data set [3] (283.15 K) was determined as 1.943 ± 0.019; in data set [3] (298.15 K), 1.923 ± 0.019; in data set [3] (313.15 K), 1.902 ± 0.019.
With `CCCCCCC` [heptane] + CCC(C)Cl, the refractive index in data set [2] (283.15 K) is recorded as 1.3929 ± 0.00031; in data set [2] (298.15 K), 1.3852 ± 0.00031; in data set [2] (313.15 K) it was 1.37735 ± 0.00031. Also, the relative permittivity in data set [3] (283.15 K) was 1.943 ± 0.019; in data set [3] (298.15 K) it was 1.923 ± 0.019; in data set [3] (313.15 K), 1.902 ± 0.019.
On to `CCCCCCC` [heptane] + CCCCCl, for which the refractive index is 1.3929 ± 0.00031 in data set [2] (283.15 K), 1.3852 ± 0.00031 in data set [2] (298.15 K) and 1.37735 ± 0.00031 in data set [2] (313.15 K). Also, the figures for the relative permittivity in data set [3] (283.15 K), in data set [3] (298.15 K) and in data set [3] (313.15 K) were 1.943 ± 0.019, 1.923 ± 0.019 and 1.902 ± 0.019, respectively.
In the case of `CCCCCC` [hexane], the refractive index in data set [4] was found to be 1.37223 ± 0.00031. Further, the relative permittivity in data set [1] (283.15 K) was 1.905 ± 0.019; in data set [1] (298.15 K), 1.892 ± 0.019; in data set [1] (313.15 K), 1.873 ± 0.019.
`CCCCCC` [hexane] + CC(C)(C)Cl: the refractive index in data set [2] (283.15 K) stood at 1.3805 ± 0.00031; in data set [2] (298.15 K), 1.37223 ± 0.00031; in data set [2] (313.15 K), 1.36391 ± 0.00031. The relative permittivity in data set [3] (283.15 K) amounted to 1.905 ± 0.019; in data set [3] (298.15 K) it was 1.892 ± 0.019; in data set [3] (313.15 K) it was 1.873 ± 0.019.
As to `CCCCCC` [hexane] + CC(C)CCl, the figures for the refractive index in data set [2] (283.15 K), in data set [2] (298.15 K) and in data set [2] (313.15 K) were 1.3805 ± 0.00031, 1.37223 ± 0.00031 and 1.36391 ± 0.00031, respectively. Also, the relative permittivity is reported as 1.905 ± 0.019 in data set [3] (283.15 K), 1.892 ± 0.019 in data set [3] (298.15 K) and 1.873 ± 0.019 in data set [3] (313.15 K).
On to `CCCCCC` [hexane] + CCC(C)Cl, for which the refractive index stood at 1.3805 ± 0.00031 in data set [2] (283.15 K), 1.37223 ± 0.00031 in data set [2] (298.15 K) and 1.36391 ± 0.00031 in data set [2] (313.15 K). The relative permittivity in data set [3] (283.15 K) worked out at 1.905 ± 0.019; in data set [3] (298.15 K), 1.892 ± 0.019; in data set [3] (313.15 K), 1.873 ± 0.019.
Consider `CCCCCC` [hexane] + CCCCCl, for which the figures for the refractive index in data set [2] (283.15 K), in data set [2] (298.15 K) and in data set [2] (313.15 K) were 1.3805 ± 0.00031, 1.37223 ± 0.00031 and 1.36391 ± 0.00031, respectively. In addition, the relative permittivity in data set [3] (283.15 K) was 1.905 ± 0.019; in data set [3] (298.15 K), 1.892 ± 0.019; in data set [3] (313.15 K), 1.873 ± 0.019.
